Measured values taken from US6676954B2, “Controlled release compositions” (Rohm and Haas Company, priority 2000, dated 2004).
Marks after values point to notes of the source that are not given here.

Columns and labels:
[1] = Salt water (synthetic-seawater) leaching test: 14C-labelled ITA remaining in the marine paint film; assay type: physicochemical
Description: The efficacy of the 3-isothiazolone/carbon-based adsorbent compositions of the present invention in a paint film was determined by a salt water (synthetic-seawater) leaching evaluation. An appropriate amount of 4,5-dichloro-2-n-octyl-3-isothiazolone (ITA), together with carbon-based adsorbent (C-1, C-2, C-3):
was added to 10 g of a marine antifouling paint formulation (2 different paint types, P-1 and P-2, see below) in a milling jar to provide a final 3-isothiazolone concentration of 2% based on total combined weight of the 3-isothiazolone/carbon-based adsorbent/paint formulation mixture. Paint films were then drawn on silanized microslides to a thickness of 0.076 mm (0.003 inch) for the rosin-based paint formulation (P-1) and to a thickness of 0.178 mm (0.007 inch) for the polishing type marine antifouling paint (P-2). The paint films were dried for 2 days and then the microslides were placed in a synthetic-seawater fish tank for 1 month. The synthetic-seawater was periodically circulated through a filter cartridge containing activated carbon and Celex™ 20 chelating agent (to remove 3-isothiazolone and copper ions). At various times the paint slides were removed and analyzed. The amount of 4,5-dichloro-2-n-octyl-3-isothiazolone remaining in the paint film after exposure to synthetic-seawater was determined by radioactive labeling (^14C-labeled 4,5-dichloro-2-n-octyl-3-isothiazolone).
The salt water leaching test and radioactive labeling measurements were conducted as follows: a small amount of ^14C-4,5-dichloro-2-n-octyl-3-isothiazolone was incorporated with ^12C-4,5-dichloro-2-n-octyl-3-isothiazolone into paint and the radioactivity of trace ^14C-molecules was measured by a Phosphorimager SI spectrometer (manufactured by Molecular Dynamics Co.); a ratio of 4×10^−5 for ^14C-4,5-dichloro-2-n-octyl-3-isothiazolone to every gram of ^12C-4,5-dichloro-2-n-octyl-3-isothiazolone was used.
The prepared slides were placed in synthetic-seawater prepared as follows: the following ingredients (20 liters deionized water, 1350 g NaCl, 225 g MgCl2.6H2O, and 321.6 g Na2B4O7.10H2O in 6 liters deionized water) were combined and adjusted to a pH of 8.2 with 1.0 M HCl solution, after which the total volume was made up to 30 liters with additional deionized water.
The solid compositions were then evaluated using (1) the salt water leaching test as described in Example 3 and the relative release test (5-day) described in Example 2. A summary of the performance of the three inorganic carriers (diatomaceous earth, aluminosilicate and magnesium silicate) relative to the carbon-based adsorbent (activated carbon) composition of the present invention is presented in Table 4.

[2] = Relative release test: 3-isothiazolone released from the solid composition into water with 0.3% sodium diethylhexylsulfosuccinate (HPLC); assay type: physicochemical; conditions: no paint
Description: The amount of 3-isothiazolone compound released from each controlled release composition was determined according to the following general procedure. A weighed amount of controlled release composition (0.014 g, prepared as described in Example 1) was placed in a 250 mL sample jar. To the jar was then added 200 mL of water containing 0.3% of sodium diethylhexylsulfosuccinate. The solution was then gently stirred to ensure no foam was formed. Aliquots (0.5 mL) were taken at 5 and 24 hours and transferred to a microcentrifuge tube. Each aliquot was then centrifuged at 14,000 rpm for 3 minutes. The supernatant was then removed and analyzed by HPLC (high pressure liquid chromatography) for the amount of the 3-isothiazolone compound. The microcentrifuge tube was then washed with 0.5 mL of water containing 0.3% of sodium diethylhexylsulfosuccinate and the wash liquid added to the sample jar. This ensured that none of the particles removed during sampling was lost and that the volume in the jar remained constant.
The solid compositions were then evaluated using (1) the salt water leaching test as described in Example 3 and the relative release test (5-day) described in Example 2. […]

[3] = paint P-1 (rosin-based), 2% ITA, synthetic seawater
[4] = paint P-2 (polishing type), 2% ITA, synthetic seawater

## CCCCCCCCn1sc(Cl)c(Cl)c1=O [None, 4,5-dichloro-2-n-octyl-3-isothiazolone]
[1]; [3]
  % ITA Retained in Paint Film, 0 Days: 100%
  % ITA Retained in Paint Film, 7 Days: 82%
  % ITA Retained in Paint Film, 30 Days: 70%
[1]; paint P-1 (rosin-based), 2% ITA, synthetic seawater, 14 days, values in are interpolated
  % ITA Retained in Paint Film, 14 Days (interpolated): (78) %
[1]; paint P-1, carrier loaded with 30% ITA, 28 days in synthetic seawater
  Salt Water Leaching Test (28 Days) (% Retained in Paint Film): 64%
[1]; [4]
  % ITA Retained in Paint Film, 0 Days: 100%
  % ITA Retained in Paint Film, 7 Days: 31-44* %
  % ITA Retained in Paint Film, 30 Days: 13%
[1]; paint P-2 (polishing type), 2% ITA, synthetic seawater, 21 days
  % ITA Retained in Paint Film, 21 Days: 18%
[2]; 5-day release test, retention as stated in the text
  % 4,5-dichloro-2-n-octyl-3-isothiazolone retained (5-day surfactant solution): 0%
[2]; carrier loaded with 30% ITA, 5-day relative release test in surfactant solution
  5 Day % Released: 100%
